From US6461997B1, “Triazole sulfones having herbicidal activity” (Monsanto Technology LLC, priority 1999, dated 2002)

How the values were obtained:
[1] = tested on: POLCO (wild buckwheat); assay: Pre-emergence herbicidal activity, cool season; type: in vivo, Polygonum convolvulus; conditions: lowest tested rate with 80% or greater inhibition; rates 300, 100, 30, 10 g/ha; about 14 days
In short: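 Herbicidal efficacy was judged visually as percent inhibition compared with untreated plants some 14 days after treatment, giving GR80 over doses of 10 to 300 g/ha. Proso millet and crabgrass grew at 30/21 °C; blackgrass and wild buckwheat grew at 18/13 °C.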

[2] = tested on: SASKR (russian thistle); assay: Pre-emergence herbicidal activity, cool season; type: in vivo, Salsola kali; conditions: lowest tested rate with 80% or greater inhibition; rates 300, 100, 30, 10 g/ha; about 14 days
In short: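 Seeds sown in sterilised fertilised topsoil received surface-applied compound in 50:50 acetone/water, typically at 300, 100, 30 and 10 g/ha, then greenhouse-grown at 30/21° C (warm-season species) or 18/13° C (cool-season species). Percent inhibition versus untreated plants was scored at about 14 days, giving GR80; an asterisk marks activity short of 80% at the top rate.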

[3] = tested on: AMARE (redroot pigweed); assay: Pre-plant incorporated (PPI) herbicidal activity, warm season; type: in vivo, Amaranthus retroflexus
Method: (§1) In another set of tests, the pre-plant incorporated (PPI) activity of compounds of this invention was evaluated on the same species as for the pre-emergence tests described above. In the PPI tests the following procedure, designed to simulate PPI application, was used.
(§2) A pre-prepared topsoil mixture (described above) was placed in a pot and compacted to a depth of 1.0 to 1.25 cm from the top of the pot. Seeds of each of several monocotyledonous and dicotyledonous annual plant species were placed on top of the soil. A sufficient quantity of soil to cover the seeds and level fill the pot was weighed into an open container. A known amount of the test compound was dissolved or suspended in an organic solvent and applied by spraying to this cover soil. The cover soil was thoroughly mixed to distribute the test compound throughout the cover soil, and was then applied as a cover layer over the seeds. Untreated soil was used as a cover layer for control pots. After treatment the plants were placed in a greenhouse where they received 0.64 cm of overhead irrigation. All subsequent watering consisted of a light overhead mist and/or subirrigation as needed for germination and growth. Tables 9 and 10 below relate to warm season plant species which were placed after pre-emergence treatment in a greenhouse with a 30/21° C. day/night temperature regime. Tables 11 and 12 below relates to cool season plant species placed after pre-emergence treatment in a greenhouse or growth chamber with an 18/13° C. day/night temperature regime. Only the compounds of Examples 1, 6, 8, 11, 13 and 15-20 were included in PPI tests.
(§3) Approximately 14 days after planting and treating, the plants were observed and herbicidal efficacy recorded as percent inhibition by comparison with untreated plants.

[4] = tested on: ECHCG (barnyardgrass); assay: as above; type: in vivo, Echinochloa crus-galli
Method: as §1, §2, §3

[5] = tested on: PANDI (fall panicum); assay: as above; type: in vivo, Panicum dichotomiflorum; conditions: PPI application
Method: as §1, §2, §3

[6] = tested on: POLCO (wild buckwheat); assay: Pre-plant incorporated (PPI) herbicidal activity, cool season; type: in vivo, Polygonum convolvulus; conditions: for Percent inhibition POLCO: weed, PPI application
Method: as §1, §2, §3

[7] = tested on: ALOMY (blackgrass); assay: as above; type: in vivo, Alopecurus myosuroides
Method: as §1, §2, §3

[8] = tested on: XANST (cocklebur); assay: Pre-plant incorporated (PPI) herbicidal activity, warm season; type: in vivo, Xanthium strumarium; conditions: PPI application
Method: as §1, §2, §3

[9] = tested on: wheat (TRZAW); assay: Selectivity test, PPI, cool season crop; type: in vivo, Triticum aestivum; conditions: PPI application
Method: as §2, §3
(§4) Additional pre-emergence and PPI tests were conducted by the procedures described above, on warm and cool season weed species in the presence of crop species, to assess herbicidal selectivity. Crop species included in warm season tests were corn (Zea mays, ZEAMX), rice (Oryza sativa, ORYSA) and soybean (Glycine max, GLYMX). Crop species included in cool season tests were wheat (Triticum aestivum, TRZAW), barley (Hordeunm vulgare, HORVX) and oilseed rape (Brassica napus, BRSNS).
(§5) Tables 15 and 16 relate to pre-emergence and PPI tests respectively on warm season species. Table 17 relates to pre-emergence tests on cool season species.

[10] = tested on: oilseed rape (BRSNS); assay: Selectivity test, PPI, cool season crop; type: in vivo, Brassica napus; conditions: PPI application
Method: as §2, §3, §4, §5

[11] = tested on: VERPE (creeping speedwell); assay: Pre-plant incorporated (PPI) herbicidal activity, cool season; type: in vivo, Veronica persicaria
Method: as §1, §2, §3

[12] = pre-plant incorporated, lowest tested rate with 80% or greater inhibition, about 14 days

## CCN(CC)C(=O)n1cnc(S(=O)(=O)C(F)(F)Cl)n1 [Example 3]
[1]
  Pre-emergence activity GR80, POLCO: [empty]
[2]
  Pre-emergence activity GR80, SASKR: [empty]
[3]; PPI application, 30 g/ha
  Percent inhibition AMARE: 90%
[3]; PPI application, 100 g/ha
  Percent inhibition AMARE: 100%
[3]; PPI application, 300 g/ha
  Percent inhibition AMARE: 100%
[3]; PPI application, 900 g/ha
  Percent inhibition AMARE: 100%
[4]; PPI application, 30 g/ha
  Percent inhibition ECHCG: 100%
[4]; PPI application, 100 g/ha
  Percent inhibition ECHCG: 99%
[4]; PPI application, 300 g/ha
  Percent inhibition ECHCG: 100%
[4]; PPI application, 900 g/ha
  Percent inhibition ECHCG: 100%
[5]; 30 g/ha
  Percent inhibition PANDI: 80%
[5]; 100 g/ha
  Percent inhibition PANDI: 100%
[5]; 300 g/ha
  Percent inhibition PANDI: 100%
[5]; 900 g/ha
  Percent inhibition PANDI: 100%
[6]; 30 g/ha
  Percent inhibition POLCO: 60%
[6]; 100 g/ha
  Percent inhibition POLCO: 70%
[6]; 300 g/ha
  Percent inhibition POLCO: 90%
[6]; 900 g/ha
  Percent inhibition POLCO: 100%
[7]; weed, PPI application, 30 g/ha
  Percent inhibition ALOMY: 60%
[7]; weed, PPI application, 100 g/ha
  Percent inhibition ALOMY: 90%
[7]; weed, PPI application, 300 g/ha
  Percent inhibition ALOMY: 99%
[7]; weed, PPI application, 900 g/ha
  Percent inhibition ALOMY: 100%
[8]; 30 g/ha
  Percent inhibition XANST: 0%
[8]; 100 g/ha
  Percent inhibition XANST: 0%
[8]; 300 g/ha
  Percent inhibition XANST: 0%
[8]; 900 g/ha
  Percent inhibition XANST: 60%
[9]; 30 g/ha
  Percent inhibition TRZAW: 0%
[9]; 100 g/ha
  Percent inhibition TRZAW: 0%
[9]; 300 g/ha
  Percent inhibition TRZAW: 20%
[9]; 900 g/ha
  Percent inhibition TRZAW: 40%
[10]; 30 g/ha
  Percent inhibition BRSNS: 100%
[10]; 100 g/ha
  Percent inhibition BRSNS: 100%
[10]; 300 g/ha
  Percent inhibition BRSNS: 100%
[10]; 900 g/ha
  Percent inhibition BRSNS: 100%

## C=C(C)CC(F)(F)S(=O)(=O)c1ncn(C(=O)N(CC)CC)n1 [Example 18]
[1]
  Pre-emergence activity GR80, POLCO: 300 g/ha
[2]
  Pre-emergence activity GR80, SASKR: 300 g/ha
[3]; Amaranthus retroflexus, PPI application, 10 g/ha, read-out: Percent inhibition AMARE
  inhibition at 10 g/ha: 30%
[3]; Amaranthus retroflexus, PPI application, 30 g/ha, read-out: Percent inhibition AMARE
  inhibition at 30 g/ha: 100%
[3]; Amaranthus retroflexus, PPI application, 100 g/ha, read-out: Percent inhibition AMARE
  inhibition at 100 g/ha: 100%
[3]; Amaranthus retroflexus, PPI application, 300 g/ha, read-out: Percent inhibition AMARE
  inhibition at 300 g/ha: 100%
[3]; Amaranthus retroflexus, PPI application, 900 g/ha, read-out: Percent inhibition AMARE
  inhibition at 900 g/ha: 100%
[3]; pre-plant incorporated, GR80 = lowest tested rate with 80% or greater inhibition, approx. 14 days after treating, 30/21° C.
  PPI activity (GR80) AMARE: 300 g/ha
[4]; Echinochloa crus-galli, PPI application, 10 g/ha, read-out: Percent inhibition ECHCG
  inhibition at 10 g/ha: 30%
[4]; Echinochloa crus-galli, PPI application, 30 g/ha, read-out: Percent inhibition ECHCG
  inhibition at 30 g/ha: 100%
[4]; Echinochloa crus-galli, PPI application, 100 g/ha, read-out: Percent inhibition ECHCG
  inhibition at 100 g/ha: 100%
[4]; Echinochloa crus-galli, PPI application, 300 g/ha, read-out: Percent inhibition ECHCG
  inhibition at 300 g/ha: 100%
[4]; Echinochloa crus-galli, PPI application, 900 g/ha, read-out: Percent inhibition ECHCG
  inhibition at 900 g/ha: 100%
[4]; [12]
  PPI activity GR80, ECHCG: 30 g/ha
[6]; [12]
  PPI activity GR80, POLCO: 100 g/ha
[11]; [12]
  PPI activity GR80, VERPE: [empty]
[11]; weed, PPI application, 10 g/ha, read-out: Percent inhibition VERPE
  inhibition at 10 g/ha: 0%
[11]; weed, PPI application, 30 g/ha, read-out: Percent inhibition VERPE
  inhibition at 30 g/ha: 20%
[11]; weed, PPI application, 100 g/ha, read-out: Percent inhibition VERPE
  inhibition at 100 g/ha: 80%
[11]; weed, PPI application, 300 g/ha, read-out: Percent inhibition VERPE
  inhibition at 300 g/ha: 95%
[11]; weed, PPI application, 900 g/ha, read-out: Percent inhibition VERPE
  inhibition at 900 g/ha: 99%
[7]; Alopecurus myosuroides, weed, PPI application, 10 g/ha, read-out: Percent inhibition ALOMY
  inhibition at 10 g/ha: 60%
[7]; Alopecurus myosuroides, weed, PPI application, 30 g/ha, read-out: Percent inhibition ALOMY
  inhibition at 30 g/ha: 60%
[7]; Alopecurus myosuroides, weed, PPI application, 100 g/ha, read-out: Percent inhibition ALOMY
  inhibition at 100 g/ha: 30%
[7]; Alopecurus myosuroides, weed, PPI application, 300 g/ha, read-out: Percent inhibition ALOMY
  inhibition at 300 g/ha: 80%
[7]; Alopecurus myosuroides, weed, PPI application, 900 g/ha, read-out: Percent inhibition ALOMY
  inhibition at 900 g/ha: 80%
[7]; [12]
  PPI activity GR80, ALOMY: 100 g/ha
[8]; Xanthium strumarium, 10 g/ha, read-out: Percent inhibition XANST
  inhibition at 10 g/ha: 0%
[8]; Xanthium strumarium, 30 g/ha, read-out: Percent inhibition XANST
  inhibition at 30 g/ha: 0%
[8]; Xanthium strumarium, 100 g/ha, read-out: Percent inhibition XANST
  inhibition at 100 g/ha: 0%
[8]; Xanthium strumarium, 300 g/ha, read-out: Percent inhibition XANST
  inhibition at 300 g/ha: 0%
[8]; Xanthium strumarium, 900 g/ha, read-out: Percent inhibition XANST
  inhibition at 900 g/ha: 30%
[9]; Triticum aestivum, 10 g/ha, read-out: Percent inhibition TRZAW
  inhibition at 10 g/ha: 0%
[9]; Triticum aestivum, 30 g/ha, read-out: Percent inhibition TRZAW
  inhibition at 30 g/ha: 0%
[9]; Triticum aestivum, 100 g/ha, read-out: Percent inhibition TRZAW
  inhibition at 100 g/ha: 0%
[9]; Triticum aestivum, 300 g/ha, read-out: Percent inhibition TRZAW
  inhibition at 300 g/ha: 30%
[9]; Triticum aestivum, 900 g/ha, read-out: Percent inhibition TRZAW
  inhibition at 900 g/ha: 60%
[10]; Brassica napus, 10 g/ha, read-out: Percent inhibition BRSNS
  inhibition at 10 g/ha: 0%
[10]; Brassica napus, 30 g/ha, read-out: Percent inhibition BRSNS
  inhibition at 30 g/ha: 0%
[10]; Brassica napus, 300 g/ha, read-out: Percent inhibition BRSNS
  inhibition at 300 g/ha: 20%
[10]; Brassica napus, 900 g/ha, read-out: Percent inhibition BRSNS
  inhibition at 900 g/ha: 100%
